# From publication PMC7465040, “Cytotoxic and Anti-Plasmodial Activities of Stephania dielsiana Y.C. Wu Extracts and the Isolated Compounds” (Molecules, 2020)
# Read-outs that look alike come from different tables or passages of the source.
# Legend:
# HeLa cells = test: Cell cycle analysis, propidium iodide flow cytometry; assay type: cell-based, human; settings: asynchronous HeLa, 10 μM, 12–72 h
# Description: Cell cycle analysis: Propidium iodide staining and flow cytometry analysis were carried out as described previously with minor modifications. Briefly, 250,000 HeLa cells (50,000 cells/mL) were treated with 10 μM oxostephanine (1) and harvested at the indicated time points. All experiments were carried out at least twice.
# Aurora A = biological target: T1, Aurora A (Homo sapiens, UniProt O14965); test: In vitro kinase assay (ADP-Glo), Aurora A; assay type: biochemical; settings: ± standard deviation, n = 2
# T1 construct: purchased Promega
# T1 sequence (O14965 1-403): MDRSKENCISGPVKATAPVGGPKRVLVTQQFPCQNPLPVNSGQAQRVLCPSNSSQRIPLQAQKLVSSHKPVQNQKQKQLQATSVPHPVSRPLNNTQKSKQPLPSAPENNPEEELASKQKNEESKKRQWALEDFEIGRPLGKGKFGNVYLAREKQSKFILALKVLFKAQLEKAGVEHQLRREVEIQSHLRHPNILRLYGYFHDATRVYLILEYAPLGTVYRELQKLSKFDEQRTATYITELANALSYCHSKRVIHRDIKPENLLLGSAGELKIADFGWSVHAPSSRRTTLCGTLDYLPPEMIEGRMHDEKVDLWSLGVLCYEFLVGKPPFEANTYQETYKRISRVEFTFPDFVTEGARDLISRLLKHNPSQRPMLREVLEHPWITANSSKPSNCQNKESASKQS
# Description: In vitro kinase assay: The Aurora A and B kinase assays were carried out using the Promega ADP-Glo based Kinase Activity Profiling system. The protocols for the Aurora A/(Myelin Basic Protein (MBP) and Aurora B/MBP assay kits were according to those recommended by the suppliers. The concentration range used was from 20 μM–39.1 nM in 384-well plates. The luminescent output from the kinase assay was read on a Biotek Synergy H4 plate reader.
# [1] = test system: Aurora A, B, and C phosphorylation in HeLa cells arrested in mitosis; test: Western blot, autophosphorylation of Aurora kinases; assay type: cell-based, human; settings: 20 μM, 12 h
# Description: (§1) Western Blot analysis: Western blotting was carried out as described previously. The primary antibodies used were from Cell Signaling (Histone H3; p-Histone H3^S10 and Phospho-Aurora A (Thr288)/Aurora B (Thr232)/Aurora C (Thr198)) and used at recommended dilution. For cell synchronization at prometaphase, HeLa cells were treated with 50 ng/mL nocodazole (NZ) (Santa Cruz Biotechnology) for 12 h. All experiments were carried out at least twice.
# [2] = test system: chloroquine-resistant W2 P. falciparum strain; test: In vitro anti-plasmodial assay (HRP2 ELISA), W2; assay type: cell-based, Plasmodium falciparum; settings: for IC50: 72 h, HRP2 ELISA, mean of five experiments, read-out: IC50 (μM ± SD) W2
# Description: Parasites were grown in A-positive human blood (Etablissement Français du Sang, Marseille, France) under controlled atmospheric conditions that consisted of 10% O2, 5% CO2, and 85% N2 at 37 °C with a humidity of 95%.
# In vitro anti-plasmodial assay: The two P. falciparum strains 3D7 and W2 were synchronized twice with sorbitol before use. The clonality of these strains was verified both in our laboratory and in an independent laboratory from the Worldwide Anti-malarial Resistance Network (WWARN) by PCR genotyping of the polymorphic genetic markers msp1 and msp2 and microsatellite loci. The compounds were re-suspended in methanol or DMSO 5% (v/v) and then diluted in methanol to obtain final concentrations ranging from 0.008 to 500 μg/mL (final concentration of 0.5% of methanol or DMSO). […] The plates were incubated for 72 h at 37 °C in controlled atmospheric conditions 5% CO2, 10% O2, and […]. After thawing the plates, haemolysed cultures were homogenized by vortexing the plates. Both the success of the drug susceptibility assay and the appropriate volume of haemolysed culture to use for each assay were determined for each clinical isolate during a preliminary HRP2 ELISA. Both the pre-test and subsequent ELISA assays were performed using a commercial kit (Malaria Ag Celisa, ref KM2159, Cellabs PTY LTD, Brookvale, Australia) according to the manufacturer’s recommendation. The optical density (OD) of each sample was measured with a spectrophotometer (Safire 2, Tecan, Lyon, France). […] The anti-plasmodial in vitro assay was performed five times for each product. The IC50 values represented the mean value calculated from five experiments. According to Hout, a selectivity index (SI) was based on the ratio between anti-parasitic and cytotoxic activities. In the case of our study, a SI was calculated between non-tumorigenic cell line 184B5 and parasites 3D7 or W2 and/or MCF10A and these two parasites.
# [3] = test system: phosphorylation of histone H3 on Ser-10 in HeLa cells; test: Western blot, histone H3 Ser-10 phosphorylation; assay type: cell-based, human; settings: 12 h
# Description: as §1
compound,measurement,setting,value
"COc1cccc2c1C(=O)c1nccc3cc4c(c-2c13)OCO4 [Oxostephanine 1, oxostephanine]",Cell cycle distribution,HeLa cells,induces a transient G2/M arrest and apoptotic cell death
same,IC50,Aurora A,0.422 ± 0.13 µM
same,"Autophosphorylation of Aurora kinases A, B and C",[1],inhibits the auto-phosphorylation of all three Aurora kinases
same,IC50,[2],216 ± 31.5 µM
same,IC50,"[2]; Plasmodium falciparum, W2, 72 h",216 to 226 µM
same,SI W2 184B5,"[2]; Table 3, selectivity index between 184B5 and parasites W2",0.007
same,Phosphorylation of histone H3 on Ser-10,[3],dramatically downregulated
